{
  "source": "paper PMC8546892",
  "about": "(Acta Pharmaceutica Sinica. B, 2021)",
  "tested_on": "GSK-3β",
  "assay": "Immunoblot of GSK-3β in Trib3-silenced AMs with MG132 or 3MA",
  "type": "cell-based, mouse",
  "details": "immunoblots, Fig. S4C",
  "note": "Residues, ends and D or L forms follow the SMILES beside them. *: point of attachment. Cbz = O=C(OCc1ccccc1)*",
  "data": [
    {"smiles": "CC(C)C[C@@H](C=O)NC(=O)[C@H](CC(C)C)NC(=O)[C@H](CC(C)C)NC(=O)OCc1ccccc1", "note": "[MG132] (Cbz-Leu-Leu-Leu-aldehyde)", "values": [
      {"measurement": "Trib3 depletion-induced reduction in GSK-3β expression", "value": "reversed"}
    ]}
  ]
}
